In patent US20220323596A1, “ANTIBODY CONJUGATES OF TOLL-LIKE RECEPTOR AGONISTS” (SILVERBACK THERAPEUTICS, INC., priority 2018, published 2022):

These molecules were tested on BMDM with MDA-MB-468 (HER2neg) (assay: mTNFα from mouse bone marrow derived macrophages co-cultured with MDA-MB-468 (HER2neg) cells). Conditions: 24 hours co-culture with HER2neg MDA-MB-468.
Assay type: cell-based
Procedure: (§1) The ability of an anti-HER2-TLR7 conjugate to specifically activate mouse macrophages when bound to tumor cells by HER2 was assessed in vitro as follows. Bone marrow cells were harvested from BALB/cJ mouse femurs and tibias using a 27-gauge needle attached to a 3 mL syringe filled with growth media (DMEM supplemented with 10% Fetal Bovine Serum, 1 mM Sodium Pyruvate, 1× GlutaMAX-1, 1× Non-Essential Amino Acids, 10 mM HEPES and 0.5% Penicillin/Streptomycin). Bone marrow cells were centrifuged, and RBC lysed before being counted and resuspended at a concentration 5×10^5/mL in growth media. Ten mL of cell suspension was placed in 10 cm dishes and 20 ng/mL murine macrophage-colony-stimulating factor (mM-CSF) was added. Cells were incubated for two days, media replaced with fresh growth media containing 20 ng/mL mM-CSF, and then cultured for a further four days. BMDM and tumor cell lines SK-BR-3 (HER2pos) or MDA-MB-468 (HER2neg) were removed from plates with Accutase cell detachment solution and counted. […] Murine TNFα (mTNFα) levels in the supernatant were determined by mTNFα ELISA Kit (BioLegend) and read on an Envision Plate Reader (Perkin Elmer, Waltham, Mass.) according to manufactures instructions. mTNFα levels were then graphed using GraphPad Prism 7.01 software (GraphPad Software, San Diego, Calif.) and EC50 values generated using non-linear regression curve fit.
With CCOCc1nc2c(N)nc3ccccc3c2n1CC(C)(C)OCCNC(=O)C(C)(C)N [Compound 1.2, 2-amino-N-(2-((1-(4-amino-2-(ethoxymethyl)-1H-imidazo[4,5-c]quinolin-1-yl)-2-methylpropan-2-yl)oxy)ethyl)-2-methylpropanamide] the “activation of mouse bone marrow cells (mTNFα)” value was “potently activating”.

The molecules below were run against T1, TLR7 (Mus musculus, UniProt P58681) (assay: In vitro TLR7 small molecule screening: murine TNFα production by bone marrow-derived murine macrophages). Conditions: murine TNFα by ELISA after overnight culture; 1000 to 0.06 nM; non-linear regression.
T1 construct: endogenous in cells; host or cells: Balb/c mouse bone marrow-derived macrophages, differentiated with M-CSF
T1 sequence (P58681 27-1050): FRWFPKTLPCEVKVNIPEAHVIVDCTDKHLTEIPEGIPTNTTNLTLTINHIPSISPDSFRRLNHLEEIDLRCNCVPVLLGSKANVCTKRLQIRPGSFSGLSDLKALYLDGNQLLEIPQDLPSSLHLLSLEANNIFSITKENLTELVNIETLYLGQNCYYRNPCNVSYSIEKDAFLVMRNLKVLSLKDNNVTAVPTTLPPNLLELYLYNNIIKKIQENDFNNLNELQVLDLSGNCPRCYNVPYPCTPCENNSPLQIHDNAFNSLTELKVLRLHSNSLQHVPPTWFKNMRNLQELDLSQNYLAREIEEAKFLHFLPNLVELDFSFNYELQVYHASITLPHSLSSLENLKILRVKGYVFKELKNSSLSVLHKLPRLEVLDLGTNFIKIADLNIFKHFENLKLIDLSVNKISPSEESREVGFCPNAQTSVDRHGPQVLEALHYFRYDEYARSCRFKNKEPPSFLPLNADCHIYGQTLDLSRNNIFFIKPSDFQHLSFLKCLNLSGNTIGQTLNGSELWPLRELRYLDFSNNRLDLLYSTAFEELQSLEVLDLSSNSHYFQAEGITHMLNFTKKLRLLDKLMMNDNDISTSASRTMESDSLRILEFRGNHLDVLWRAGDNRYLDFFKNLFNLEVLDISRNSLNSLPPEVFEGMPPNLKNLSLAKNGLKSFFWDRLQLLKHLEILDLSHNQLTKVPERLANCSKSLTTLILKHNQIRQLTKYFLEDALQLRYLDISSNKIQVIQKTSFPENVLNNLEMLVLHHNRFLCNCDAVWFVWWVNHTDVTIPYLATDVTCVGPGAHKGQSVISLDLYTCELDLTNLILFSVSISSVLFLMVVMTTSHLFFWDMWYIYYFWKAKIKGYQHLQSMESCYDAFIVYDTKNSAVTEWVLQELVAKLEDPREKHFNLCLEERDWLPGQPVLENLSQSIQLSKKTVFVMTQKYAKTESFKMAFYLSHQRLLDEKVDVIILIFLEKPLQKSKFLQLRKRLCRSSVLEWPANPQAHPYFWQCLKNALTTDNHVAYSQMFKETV
Assay type: cell-based
Procedure: Murine macrophages were derived from bone marrow cells from a Balb/c mouse. Briefly, murine bone marrow cells were isolated and resuspended in cDMEM media (high glucose DMEM (HyClone) supplemented with 10% fetal bovine serum (HyClone), 1 mM Sodium Pyruvate (HyClone), 2 mM L-glutamine (Gibco), 10 mM HEPES (HyClone), 1×NEAA (Gibco), 50 U/mL penicillin, 50 U/mL streptomycin (HyClone)) and seeded at 5e5 cells/mL in the presence of 20 ng/mL murine M-CSF (Peprotech) and incubated at 37° C., 5% CO2 for 7 days to differentiate into murine macrophages.
After differentiation, bone marrow-derived murine macrophages were plated in 96-well flat bottom microtiter plates (80,000/well) along with titrating concentrations of TLR7 small molecules ranging from 1000 to 0.06 nM in cRPMI media (RPMI-1640 (HyClone) supplemented with 10% fetal bovine serum (HyClone), 1 mM Sodium Pyruvate (HyClone), 2 mM L-glutamine (Gibco), 10 mM HEPES (HyClone), 1×NEAA (Gibco), 50 U/mL penicillin, 50 U/mL streptomycin (HyClone)). After overnight culture, supernatants were harvested and murine TNFα levels were determined by ELISA (BioLegend). Table 4. […] Data was analyzed using GraphPad Prism 7.01 software (GraphPad Software) and EC50 values calculated using non-linear regression. The TLR7 small molecules were active, stimulating production of murine TNFα in a dose-dependent manner from the murine macrophages. Compound A is represented by the formula: […]
Work on CCOCc1nc2c(N)nc3ccccc3c2n1CC(C)(C)OCCNC(=O)C(C)(C)NC(=O)OCc1ccccc1 [Compound 1.1, benzyl (1-((2-((1-(4-amino-2-(ethoxymethyl)-1H-imidazo[4,5-c]quinolin-1-yl)-2-methylpropan-2-yl)oxy)ethyl)amino)-2-methyl-1-oxopropan-2-yl)carbamate] yielded an EC50 of 20 nM.
Work on CCOCc1nc2c(NC(=O)[C@H](C)NC(=O)OC(C)(C)C)nc3ccccc3c2n1CC(C)(C)OCCNC(=O)C(C)(C)NC(=O)OCc1ccccc1 [Compound 1.3, benzyl (S)-(1-((2-((1-(4-(2-((tert-butoxycarbonyl)amino)propanamido)-2-(ethoxymethyl)-1H-imidazo[4,5-c]quinolin-1-yl)-2-methylpropan-2-yl)oxy)ethyl)amino)-2-methyl-1-oxopropan-2-yl)carbamate] yielded an EC50 of 1680 nM.
CCOCc1nc2c(N)nc3ccccc3c2n1CC(C)(C)OCCNC(=O)OC(C)(C)C [Compound 1.4, tert-butyl (2-((1-(4-amino-2-(ethoxymethyl)-1H-imidazo[4,5-c]quinolin-1-yl)-2-methylpropan-2-yl)oxy)ethyl)carbamate] gave an EC50 of 1.2 nM.
CCOCc1nc2c(NC(=O)[C@H](CCCNC(N)=O)NC(=O)[C@@H](N)C(C)C)nc3ccccc3c2n1CC(C)(C)OCCNC(=O)OC(C)(C)C [Compound 1.5, tert-butyl (2-((1-(4-((S)-2-((S)-2-amino-3-methylbutanamido)-5-ureidopentanamido)-2-(ethoxymethyl)-1H-imidazo[4,5-c]quinolin-1-yl)-2-methylpropan-2-yl)oxy)ethyl)carbamate] was tested, and the EC50 was 4 nM.
Work on CCOCc1nc2c(NC(=O)[C@H](C)N)nc3ccccc3c2n1CC(C)(C)OCCNC(=O)C(C)(C)NC(=O)OCc1ccccc1 [Compound 1.6, benzyl (S)-(1-((2-((1-(4-(2-aminopropanamido)-2-(ethoxymethyl)-1H-imidazo[4,5-c]quinolin-1-yl)-2-methylpropan-2-yl)oxy)ethyl)amino)-2-methyl-1-oxopropan-2-yl)carbamate] yielded an EC50 of 657 nM.
For CCOCc1nc2c(NC(=O)[C@H](C)NC(=O)C3CCCN3C(=O)OC(C)(C)C)nc3ccccc3c2n1CC(C)(C)OCCNC(=O)C(C)(C)NC(=O)OCc1ccccc1 (stereo partly drawn) [Compound 1.7, tert-butyl 2-(((S)-1-((2-(ethoxymethyl)-1-(5,5,11,11-tetramethyl-3,6-dioxo-1-phenyl-2,10-dioxa-4,7-diazadodecan-12-yl)-1H-imidazo[4,5-c]quinolin-4-yl)amino)-1-oxopropan-2-yl)carbamoyl)pyrrolidine-1-carboxylate], the EC50 was 503 nM.
CCOCc1nc2c(NC(=O)[C@H](CCCNC(N)=O)NC(=O)[C@@H](NC(=O)OCC3c4ccccc4-c4ccccc43)C(C)C)nc3ccccc3c2n1CC(C)(C)OCCNC(=O)OC(C)(C)C [Compound 1.8, (9H-fluoren-9-yl)methyl ((S)-1-(((S)-1-((1-(2-(2-((tert-butoxycarbonyl)amino)ethoxy)-2-methylpropyl)-2-(ethoxymethyl)-1H-imidazo[4,5-c]quinolin-4-yl)amino)-1-oxo-5-ureidopentan-2-yl)amino)-3-methyl-1-oxobutan-2-yl)carbamate] was tested, and the EC50 was 59 nM.
For CCOCc1nc2c(N)nc3ccccc3c2n1CC(C)(C)OCCN [Compound A, reference compound], the EC50 was 73 nM.

What follows are molecules tested on BMDM with SK-BR-3 (HER2pos) (assay: mTNFα from mouse bone marrow derived macrophages co-cultured with SK-BR-3 (HER2pos) cells). Conditions: 24 hours co-culture with HER2pos SK-BR-3.
Assay type: cell-based
Procedure: as §1
For CCOCc1nc2c(N)nc3ccccc3c2n1CC(C)(C)OCCNC(=O)C(C)(C)N [Compound 1.2, 2-amino-N-(2-((1-(4-amino-2-(ethoxymethyl)-1H-imidazo[4,5-c]quinolin-1-yl)-2-methylpropan-2-yl)oxy)ethyl)-2-methylpropanamide], the “activation of mouse bone marrow cells (mTNFα)” value was “potently activating”.
